In ChEMBL document CHEMBL3044747, “The antimycobacterial MICs, SARs, and QSARs of some ethnobotanically selected phytocompounds” (2013):
In brackets after ≈: the same amount, converted by molar mass.

Columns and labels:
Assay type in all cases: functional
Details in all cases: 672 h
[1] = tested on: Mycobacterium tuberculosis; experiment: Antimycobacterial activity against Mycobacterium tuberculosis H37Rv grown on Lowenstein-Jensen solid medium assessed as growth inhibition incubated with compound dissolved in ethanol/methanol measured after 4 weeks
[2] = tested on: Mycobacterium tuberculosis; experiment: Antimycobacterial activity against Mycobacterium tuberculosis H37Rv grown on Lowenstein-Jensen solid medium assessed as growth inhibition incubated with compound dissolved in DMSO measured after 4 weeks
[3] = tested on: Mycobacterium tuberculosis; experiment: Antimycobacterial activity against Mycobacterium tuberculosis H37Rv grown on Lowenstein-Jensen solid medium assessed as growth inhibition incubated with compound dissolved in water measured after 4 weeks
[4] = tested on: Mycobacterium tuberculosis; experiment: Antimycobacterial activity against MDR Mycobacterium tuberculosis grown in MGIT liquid medium assessed as growth inhibition measured after 4 weeks by BACTEC method
[5] = tested on: Mycobacterium tuberculosis; experiment: Antimycobacterial activity against Mycobacterium tuberculosis H37Rv grown in MGIT liquid medium assessed as growth inhibition measured after 4 weeks by BACTEC method
[6] = tested on: Mycobacterium tuberculosis; experiment: Antimycobacterial activity against Mycobacterium tuberculosis H37Rv grown on Lowenstein-Jensen solid medium assessed as growth inhibition measured after 4 weeks

In the case of `COc1cc(-c2cc(=O)c3c(O)cc(O)cc3o2)c(OC)c(OC)c1OC`, the MIC [1] is reported as 7.4 µg/mL (≈ 19.8 µM), the MIC [2] is reported as 15 µg/mL (≈ 40.1 µM) and the MIC [3] is reported as 48 µg/mL (≈ 128 µM).

With `CCCCCC1=C(O)C(=O)C=C(O)C1=O` the MIC [4] was 110 µg/mL (≈ 523 µM) and the MIC [5] was 50 µg/mL (≈ 238 µM).

Work on `COc1ccc(-c2coc3cc(O)cc(O)c3c2=O)cc1C=O` yielded an MIC [2] of 37 µg/mL (≈ 118 µM) and an MIC [3] of 36.3 µg/mL (≈ 116 µM).

Work on `CCCC/C=C/CCCCCCCCCCCCCc1c(O)c(OC(C)=O)c(C)c(OC(C)=O)c1OC(C)=O` yielded an MIC [4] of 40 µg/mL (≈ 73.2 µM) and an MIC [5] of 10 µg/mL (≈ 18.3 µM).

Work on `COc1cc(O)c(C/C=C/c2ccccc2)c(O)c1OC` yielded an MIC [2] of 41 µg/mL (≈ 143 µM) and an MIC [3] of 48.3 µg/mL (≈ 169 µM).

Molecule `CCCCCCCCCCCC1=C(OC)C(=O)C=C(OC)C1=O` has an MIC [4] of 20 µg/mL (≈ 62 µM) and an MIC [5] of 10 µg/mL (≈ 31 µM).

In the case of `CCC1=C(O)C(=O)C=C(O)C1=O`, the MIC [2] is reported as 70 µg/mL (≈ 416 µM), the MIC [3] is reported as 62.3 µg/mL (≈ 371 µM) and the MIC [4] is reported as 120 µg/mL (≈ 714 µM). For the same molecule, the MIC [5] was 109 µg/mL (≈ 648 µM).

Work on `CN[C@@H]1[C@H](O[C@H]2[C@H](O[C@H]3[C@H](O)[C@@H](O)[C@H](N=C(N)N)[C@@H](O)[C@@H]3N=C(N)N)O[C@@H](C)[C@]2(O)C=O)O[C@@H](CO)[C@H](O)[C@H]1O` [STREPTOMYCIN] yielded an MIC [6] of 4.95 µg/mL (≈ 8.51 µM), an MIC [4] of 2.5 µg/mL (≈ 4.3 µM) and an MIC [5] of 3.3 µg/mL (≈ 5.67 µM).

`CCCCCCCCCCCC1=C(C(C)=O)C(=O)C=C(OC(C)=O)C1=O` was tested, and the MIC [4] was 50 µg/mL (≈ 138 µM) and the MIC [5] was 42.5 µg/mL (≈ 117 µM).

`COc1cc(O)c(C/C=C/c2ccccc2)c(OC)c1` gave an MIC [2] of 58.4 µg/mL (≈ 216 µM) and an MIC [3] of 37.9 µg/mL (≈ 140 µM).

`C[C@@H]1CCC2(CO)C(C(=O)O)=CCCC2[C@@]1(C)CCc1ccoc1` (stereo partly drawn) gave an MIC [1] of 31 µg/mL (≈ 93.2 µM), an MIC [2] of 37.4 µg/mL (≈ 113 µM) and an MIC [3] of 36.7 µg/mL (≈ 110 µM).

`C[C@]12CC(=O)CC(CO)(CO)C1CC[C@@]13CC4[C@@H](CC12)[C@@]4(C)C3` (stereo partly drawn) was tested, and the MIC [1] was 42.3 µg/mL (≈ 133 µM), the MIC [2] was 42.9 µg/mL (≈ 135 µM) and the MIC [3] was 23.3 µg/mL (≈ 73.2 µM).

`COc1cc(O)c(CCCc2ccccc2)c(O)c1OC` was tested, and the MIC [2] was 34.3 µg/mL (≈ 119 µM) and the MIC [3] was 49.7 µg/mL (≈ 172 µM).

Molecule `COc1ccc2c(c1OC)C=NC1C2CCC2CC3OCOC3CC21.Cl` (stereo not drawn) has an MIC [1] of 16 µg/mL, an MIC [2] of 31.3 µg/mL and an MIC [3] of 50.3 µg/mL.

`CCCCCCCCCCCCCC1=C(O)C(=O)C=C(O)C1=O` [Rapanone] showed an MIC [4] of 65 µg/mL (≈ 202 µM) and an MIC [5] of 35 µg/mL (≈ 109 µM).

Work on `CC(C)CCc1cc2c(cc1O)OCC1c3cc(O)cc(CCC(C)C)c3OC21` (stereo not drawn) yielded an MIC [2] of 74.3 µg/mL (≈ 187 µM) and an MIC [3] of 81.7 µg/mL (≈ 206 µM).

Work on `COc1cc(O)c2c(=O)c(O)c(-c3ccc(O)cc3)oc2c1` [RHAMNOCITRIN] yielded an MIC [1] of 15.3 µg/mL (≈ 51 µM), an MIC [2] of 37.7 µg/mL (≈ 126 µM) and an MIC [3] of 59.7 µg/mL (≈ 199 µM).

With `O=C1CCc2nccc3c4ccccc4n1c23` the MIC [1] was 30 µg/mL (≈ 135 µM), the MIC [2] was 42 µg/mL (≈ 189 µM) and the MIC [3] was 49.3 µg/mL (≈ 222 µM).

Work on `COc1ccc(C2Oc3cc(O)c(OC)c(O)c3C(=O)C2OC)cc1` (stereo not drawn) yielded an MIC [2] of 53 µg/mL (≈ 153 µM) and an MIC [3] of 59.3 µg/mL (≈ 171 µM).

`CO[C@H]1/C=C/O[C@@]2(C)Oc3c(C)c(O)c4c(O)c(c(/C=N/N5CCN(C)CC5)c(O)c4c3C2=O)NC(=O)/C(C)=C\C=C\[C@H](C)[C@H](O)[C@@H](C)[C@@H](O)[C@@H](C)[C@H](OC(C)=O)[C@@H]1C` [RIFAMPIN] gave an MIC [6] of 45.7 µg/mL (≈ 55.5 µM), an MIC [4] of 30 µg/mL (≈ 36.5 µM) and an MIC [5] of 7.5 µg/mL (≈ 9.11 µM).

`COc1cc(O)cc(O)c1C/C=C/c1ccccc1` showed an MIC [2] of 49.7 µg/mL (≈ 194 µM) and an MIC [3] of 53.7 µg/mL (≈ 210 µM).

`COc1ccc(-c2oc3cc(O)cc(O)c3c(=O)c2O)cc1` [KAEMPFERIDE] gave an MIC [2] of 32.7 µg/mL (≈ 109 µM) and an MIC [3] of 26 µg/mL (≈ 86.6 µM).

`Cc1cc(O)c2c(c1)C(=O)c1cc(O)cc(O)c1C2=O` [EMODIN] showed an MIC [2] of 51.7 µg/mL (≈ 191 µM) and an MIC [3] of 50.3 µg/mL (≈ 186 µM).

`NNC(=O)c1ccncc1` [ISONIAZID] was tested, and the MIC [6] was 0.6 µg/mL (≈ 4.38 µM), the MIC [4] was 2.7 µg/mL (≈ 19.7 µM) and the MIC [5] was 0.8 µg/mL (≈ 5.83 µM).

`CCCCCCCCCCCCCC1=C(O)C(=O)C=C(OC)C1=O` [Sorgoleone-364] was tested, and the MIC [4] was 70 µg/mL (≈ 208 µM) and the MIC [5] was 60 µg/mL (≈ 178 µM).

`CC(=O)c1c(C)cc2cccc(O)c2c1O` [NEPODIN] gave an MIC [2] of 40.3 µg/mL (≈ 186 µM) and an MIC [3] of 84.7 µg/mL (≈ 392 µM).

Work on `CC[C@@H](CO)NCCN[C@@H](CC)CO` [ETHAMBUTOL] yielded an MIC [6] of 2.65 µg/mL (≈ 13 µM), an MIC [4] of 15 µg/mL (≈ 73.4 µM) and an MIC [5] of 2.5 µg/mL (≈ 12.2 µM).

Work on `CC1=CC(=O)c2c(O)cccc2C1=O` [PLUMBAGIN] yielded an MIC [2] of 42.3 µg/mL (≈ 225 µM) and an MIC [3] of 40.3 µg/mL (≈ 214 µM).

Molecule `CCCCCCCCCCCC1=C(O)C(=O)C=C(OC)C1=O` [5-O-METHYLEMBELIN] has an MIC [4] of 32.9 µg/mL (≈ 107 µM) and an MIC [5] of 15 µg/mL (≈ 48.6 µM).

For `CCCCCCCCCCCC1=C(O)C(=O)C=C(O)C1=O` [EMBELIN], the MIC [1] was 14.7 µg/mL (≈ 49.9 µM), the MIC [2] was 35.3 µg/mL (≈ 120 µM) and the MIC [3] was 49 µg/mL (≈ 166 µM). The MIC [4] was 50 µg/mL (≈ 170 µM) and the MIC [5] was 15 µg/mL (≈ 51 µM).

With `c1c2c(cc3c1C1CCN4CCC[C@@]56CCN3[C@@]1(CC5)C46)OCO2` (stereo partly drawn) the MIC [2] was 36.2 µg/mL (≈ 112 µM) and the MIC [3] was 38.7 µg/mL (≈ 119 µM).

`O=C1C[C@@H](c2ccccc2)Oc2cc(O)cc(O)c21` [PINOCEMBRIN] gave an MIC [2] of 73 µg/mL (≈ 285 µM) and an MIC [3] of 63.3 µg/mL (≈ 247 µM).

In the case of `CCCC1=C(O)C(=O)C=C(O)C1=O`, the MIC [4] is reported as 115 µg/mL (≈ 631 µM) and the MIC [5] is reported as 85 µg/mL (≈ 467 µM).

`CCCCCCCCCCCCCCCC1=C(O)C(=O)C=C(O)C1=O` gave an MIC [4] of 105 µg/mL (≈ 300 µM) and an MIC [5] of 107 µg/mL (≈ 305 µM).

For `C=C1CC23CCC4[C@](O)(CO)C[C@@H](O)C[C@]4(C)C2CCC1C3` (stereo partly drawn), the MIC [1] was 39.7 µg/mL (≈ 130 µM), the MIC [2] was 37.6 µg/mL (≈ 123 µM) and the MIC [3] was 66.8 µg/mL (≈ 218 µM).

In the case of `COc1ccc(-c2oc3cc(O)c(OC)c(O)c3c(=O)c2OC)cc1` [SANTIN], the MIC [2] is reported as 59 µg/mL (≈ 171 µM) and the MIC [3] is reported as 51 µg/mL (≈ 148 µM).

`CCCC/C=C/CCCCCCCCCC1=C(O)C(=O)C(C)=C(O)C1=O` showed an MIC [2] of 41.3 µg/mL (≈ 114 µM) and an MIC [3] of 40.9 µg/mL (≈ 113 µM).

In the case of `CCC1=C(O)C(=O)C(CC)=C(O)C1=O`, the MIC [4] is reported as 55 µg/mL (≈ 280 µM) and the MIC [5] is reported as 50 µg/mL (≈ 255 µM).

`CCCC/C=C/CCCCCCCCCCCCCC1=C(C(C)=O)C(=O)C(C)=C(OC(C)=O)C1=O` was tested, and the MIC [4] was 27.5 µg/mL (≈ 56.5 µM) and the MIC [5] was 5 µg/mL (≈ 10.3 µM).

`CCCC/C=C/CCCCCCCCCC1=C(O)C(=O)C=C(OC)C1=O` gave an MIC [2] of 40.7 µg/mL (≈ 112 µM) and an MIC [3] of 50 µg/mL (≈ 138 µM).

`COc1cc2c(=O)c(-c3ccc4c(c3)OCO4)coc2c2c1OC(C)(C)CC2` gave an MIC [1] of 40.3 µg/mL (≈ 106 µM), an MIC [2] of 74.7 µg/mL (≈ 196 µM) and an MIC [3] of 37.9 µg/mL (≈ 99.6 µM).

In the case of `CCCCCCCCCC1=C(O)C(=O)C=C(O)C1=O`, the MIC [4] is reported as 60 µg/mL (≈ 225 µM) and the MIC [5] is reported as 7.5 µg/mL (≈ 28.2 µM).

`CCCCCCCC1=C(O)C(=O)C=C(O)C1=O` was tested, and the MIC [4] was 106 µg/mL (≈ 445 µM) and the MIC [5] was 45 µg/mL (≈ 189 µM).
